Consider eight molecules from patent US20230114728A1 (Venatorx Pharmaceuticals, Inc., priority 2019, published 2023).

T1 sequence (G3XD46 whole entry): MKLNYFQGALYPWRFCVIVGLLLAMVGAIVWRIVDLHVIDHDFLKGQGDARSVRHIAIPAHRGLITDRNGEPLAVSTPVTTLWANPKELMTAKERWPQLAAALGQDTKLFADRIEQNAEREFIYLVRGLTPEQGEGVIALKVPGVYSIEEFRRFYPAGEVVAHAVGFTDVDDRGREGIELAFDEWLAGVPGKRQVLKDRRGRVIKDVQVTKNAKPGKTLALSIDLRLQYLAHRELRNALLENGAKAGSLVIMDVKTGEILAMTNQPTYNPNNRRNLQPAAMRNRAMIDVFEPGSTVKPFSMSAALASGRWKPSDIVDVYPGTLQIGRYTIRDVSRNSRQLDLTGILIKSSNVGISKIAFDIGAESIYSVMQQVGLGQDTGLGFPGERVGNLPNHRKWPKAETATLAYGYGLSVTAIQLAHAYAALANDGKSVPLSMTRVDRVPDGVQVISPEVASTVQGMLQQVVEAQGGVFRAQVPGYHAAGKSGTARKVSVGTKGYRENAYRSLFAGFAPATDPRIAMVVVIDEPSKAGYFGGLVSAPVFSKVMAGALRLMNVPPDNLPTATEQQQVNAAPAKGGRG

The test concerns the target T1, P. aeruginosa PBP3 (Pseudomonas aeruginosa, UniProt G3XD46).
T1 construct: made in house
The experiment in a line: Bocillin-FL fluorescence polarization competition binding assay, P. aeruginosa PBP3. To be noted: fluorescence polarization competition binding assay using Bocillin-FL. In outline: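 Binding of boronic acid inhibitors to purified Pseudomonas aeruginosa (PA01) PBP3 was measured by fluorescence polarization competition with Bocillin-FL, a fluorescent penicillin V. Reactions of 80 μl contained 0.75 μM PBP3 and 0.1 μM Bocillin-FL in 50 mM Hepes (pH 8.0), 300 mM NaCl and 5% (v/v) glycerol, in black 384-well plates. FP (Excitation 490 nm, Emission 520 nm) was read for up to 60 minutes. EC50 is the concentration that halves PBP-bound Bocillin-FL.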
For the molecule `NCCCN1CCN(C(=O)N[C@@H](C(=O)N[C@H]2Cc3cccc(C(=O)O)c3OB2O)c2cccc(NS(N)(=O)=O)c2)C(=O)C1=O` [Example 117, (R)-3-((R)-2-(4-(3-aminopropyl)-2,3-dioxopiperazine-1-carboxamido)-2-(3-(sulfamoylamino)phenyl)acetamido)-2-hydroxy-3,4-dihydro-2H-benzo[e][1,2]oxaborinine-8-carboxylic acid], the “P. aeruginosa PBP3 Potency” value is given as “D (D represents a potency <10 μM)”.
The value for `NCCCN1CCN(C(=O)N[C@H](C(=O)N[C@H]2Cc3cccc(C(=O)O)c3OB2O)c2cccc(NS(N)(=O)=O)c2)C(=O)C1=O` [Example 118, (R)-3-((S)-2-(4-(3-aminopropyl)-2,3-dioxopiperazine-1-carboxamido)-2-(3-(sulfamoylamino)phenyl)acetamido)-2-hydroxy-3,4-dihydro-2H-benzo[e][1,2]oxaborinine-8-carboxylic acid] was “D (D represents a potency <10 μM)”.
The value for `NC1(CN2CCN(C(=O)NC(C(=O)N[C@H]3Cc4cccc(C(=O)O)c4OB3O)c3cccc(NS(N)(=O)=O)c3)C(=O)C2=O)CC1` (stereo partly drawn) [Example 120, (3R)-3-(2-(4-((1-aminocyclopropyl)methyl)-2,3-dioxopiperazine-1-carboxamido)-2-(3-(sulfamoylamino)phenyl)acetamido)-2-hydroxy-3,4-dihydro-2H-benzo[e][1,2]oxaborinine-8-carboxylic acid] was “D (D represents a potency <10 μM)”.
To `O=C(O)c1c(F)ccc2c1OB(O)[C@@H](NC(=O)C(NC(=O)N1CCN(CCF)C(=O)C1=O)c1c(F)cc(O)cc1F)C2` (stereo partly drawn) [Example 129, (3R)-3-(2-(2,6-difluoro-4-hydroxyphenyl)-2-(4-(2-fluoroethyl)-2,3-dioxopiperazine-1-carboxamido)acetamido)-7-fluoro-2-hydroxy-3,4-dihydro-2H-benzo[e][1,2]oxaborinine-8-carboxylic acid] belongs “D (D represents a potency <10 μM)”.
As to `CCN1CCN(C(=O)NC(C(=O)N[C@H]2Cc3ccc(F)c(C(=O)O)c3OB2O)c2c(F)cc(O)cc2F)C(=O)C1=O` (stereo partly drawn) [Example 130, (3R)-3-(2-(2,6-difluoro-4-hydroxyphenyl)-2-(4-ethyl-2,3-dioxopiperazine-1-carboxamido)acetamido)-7-fluoro-2-hydroxy-3,4-dihydro-2H-benzo[e][1,2]oxaborinine-8-carboxylic acid], the “P. aeruginosa PBP3 Potency” value is “D (D represents a potency <10 μM)”.
To `CCN1CCN(C(=O)NC(C(=O)N[C@H]2Cc3cccc(C(=O)O)c3OB2O)c2cc(F)c(C(=O)O)cc2F)C(=O)C1=O` (stereo partly drawn) [Example 137, (3R)-3-(2-(4-carboxy-2,5-difluorophenyl)-2-(4-ethyl-2,3-dioxopiperazine-1-carboxamido)acetamido)-2-hydroxy-3,4-dihydro-2H-benzo[e][1,2]oxaborinine-8-carboxylic acid] belongs “D (D represents a potency <10 μM)”; to `CCN1CCN(C(=O)NC(C(=O)N[C@H]2Cc3cccc(C(=O)O)c3OB2O)c2cc(Cl)c(C(=O)O)cc2F)C(=O)C1=O` (stereo partly drawn) [Example 138, (3R)-3-(2-(4-carboxy-5-chloro-2-fluorophenyl)-2-(4-ethyl-2,3-dioxopiperazine-1-carboxamido)acetamido)-2-hydroxy-3,4-dihydro-2H-benzo[e][1,2]oxaborinine-8-carboxylic acid], “D (D represents a potency <10 μM)”; to `CCN1CCN(C(=O)NC(C(=O)N[C@H]2Cc3cccc(C(=O)O)c3OB2O)c2cc(F)c(C(=O)O)c(F)c2)C(=O)C1=O` (stereo partly drawn) [Example 141, (3R)-3-(2-(4-carboxy-3,5-difluorophenyl)-2-(4-ethyl-2,3-dioxopiperazine-1-carboxamido)acetamido)-2-hydroxy-3,4-dihydro-2H-benzo[e][1,2]oxaborinine-8-carboxylic acid], “D (D represents a potency <10 μM)”.
